{
  "source": "patent US7563791B2",
  "about": "“Pyrrolotriazine derivatives useful for treating hyper-proliferative disorders and diseases associated with angiogenesis” (Bayer Pharmaceuticals Corporation, priority 2004, dated 2009)",
  "key": {"HCT116 cells": {"test_system": "HCT116 cells", "experiment": "Tumor cell proliferation (Alamar Blue), HCT116", "assay_type": "cell-based", "details": "Homo sapiens, HCT-116, 72 h", "experimental": "(§1) Human tumor cells (e.g., HCT116 or MDA-MB-231 cells), are seeded in a Costar 96-well plate at 3.0×10^3 cells/well and grown in 150 μl of RPMI complete media (Invitrogen Corporation, Grand Island, N.Y.) containing 10% fetal bovine serum (Hyclone, Logan, Utah) at 37° C. for 16 h in an incubator with 5% CO2. To each well, 50 μl of additional growth media containing 40 μM to 18 nM concentrations of compound with 0.4% DMSO is added. Cells are grown for another 72 h at 37° C. with 5% CO2. 20 μl of Alamar Blue (Trek Diagnostic Systems, Inc., Cleveland, Ohio) reagent is added to each well and incubated for 3 h at 37° C. Plates are read in a SpectraMax Gemini (Molecular Devices, Calif.) with 544 nm excitation and 590 nm emission wavelength. IC50 values are determined by linear regression analysis of log drug concentration versus percent inhibition."}, "MDA-MB-231 cells": {"test_system": "MDA-MB-231 cells", "experiment": "Tumor cell proliferation (Alamar Blue), MDA-MB-231", "assay_type": "cell-based", "details": "Homo sapiens, MDA-MB-231, 72 h", "experimental": "as §1"}},
  "data": [
    {"molecule": "Nc1ncnn2cc(-c3nc(CN4CCOCC4)co3)c(-c3ccc(NC(=O)Nc4cc(C(F)(F)F)ccc4F)cc3)c12", "note": "[Example 257, N-(4-{4-amino-6-[4-(morpholin-4-ylmethyl)-1,3-oxazol-2-yl]pyrrolo[2,1-f][1,2,4]triazin-5-yl}phenyl)-N′-[2-fluoro-5-(trifluoromethyl)phenyl]urea]", "values": [
      {"measurement": "IC50", "setting": "HCT116 cells", "value": "> 0.5", "unit": "µM"},
      {"measurement": "IC50", "setting": "HCT116 cells; bounds given in μM", "value": "< 1.5", "unit": "µM"},
      {"measurement": "IC50", "setting": "MDA-MB-231 cells", "value": "> 0.5", "unit": "µM"},
      {"measurement": "IC50", "setting": "MDA-MB-231 cells; bounds given in μM", "value": "< 1.5", "unit": "µM"}
    ]},
    {"molecule": "CCOC(=O)c1coc(-c2cn3ncnc(N)c3c2-c2ccc(NC(=O)Nc3cc(C(F)(F)F)ccn3)cc2)n1", "note": "[Example 232, ethyl 2-(4-amino-5-{4-[({[4-(trifluoromethyl)pyridin-2-yl]amino}carbonyl)amino]phenyl}pyrrolo[2,1-f][1,2,4]triazin-6-yl)-1,3-oxazole-4-carboxylate]", "values": [
      {"measurement": "IC50", "setting": "HCT116 cells; bounds given in μM", "value": "1.5 to 5", "unit": "µM"},
      {"measurement": "IC50", "setting": "MDA-MB-231 cells; bounds given in μM", "value": "1.5 to 5", "unit": "µM"}
    ]},
    {"molecule": "CCOC(=O)c1cn2ncnc(N)c2c1-c1ccc(NC(=O)Nc2cc(C(F)(F)F)ccn2)c(F)c1", "note": "[Example 242, ethyl 4-amino-5-{3-fluoro-4-[({[4-(trifluoromethyl)pyridin-2-yl]amino}carbonyl)amino]phenyl}pyrrolo[2,1-f][1,2,4]triazine-6-carboxylate]", "values": [
      {"measurement": "IC50", "setting": "HCT116 cells; bounds given in μM", "value": "1.5 to 5", "unit": "µM"},
      {"measurement": "IC50", "setting": "MDA-MB-231 cells; bounds given in μM", "value": "1.5 to 5", "unit": "µM"}
    ]},
    {"molecule": "Nc1ncnn2cc(-c3ncco3)c(-c3ccc(NC(=O)Nc4cc(C(F)(F)F)ccn4)cc3)c12", "note": "[Example 235, N-{4-[4-amino-6-(1,3-oxazol-2-yl)pyrrolo[2,1-f][1,2,4]triazin-5-yl]phenyl}-N′-[4-(trifluoromethyl)pyridin-2-yl]urea]", "values": [
      {"measurement": "IC50", "setting": "HCT116 cells", "value": "< 0.5", "unit": "µM"},
      {"measurement": "IC50", "setting": "MDA-MB-231 cells", "value": "> 0.5", "unit": "µM"},
      {"measurement": "IC50", "setting": "MDA-MB-231 cells; bounds given in μM", "value": "< 1.5", "unit": "µM"}
    ]},
    {"molecule": "CC(C)(C)c1cc(NC(=O)Nc2ccc(-c3c(C#N)cn4ncnc(N)c34)cc2)on1", "note": "[Example 161, N-[4-(4-amino-6-cyanopyrrolo[2,1-f][1,2,4]triazin-5-yl)phenyl]-N′-(3-tert-butylisoxazol-5-yl)urea]", "values": [
      {"measurement": "IC50", "setting": "HCT116 cells", "value": "> 0.5", "unit": "µM"},
      {"measurement": "IC50", "setting": "HCT116 cells; bounds given in μM", "value": "< 1.5", "unit": "µM"},
      {"measurement": "IC50", "setting": "MDA-MB-231 cells; bounds given in μM", "value": "1.5 to 5", "unit": "µM"}
    ]},
    {"molecule": "CCNC(=O)c1cn2ncnc(N)c2c1-c1ccc(NC(=O)Nc2cc(C(F)(F)F)ccc2F)cc1", "note": "[Example 71, 4-amino-N-ethyl-5-{4-[({[2-fluoro-5-(trifluoromethyl)phenyl]amino}carbonyl)amino]phenyl}pyrrolo[2,1-f][1,2,4]triazine-6-carboxamide]", "values": [
      {"measurement": "IC50", "setting": "HCT116 cells", "value": "> 0.5", "unit": "µM"},
      {"measurement": "IC50", "setting": "HCT116 cells; bounds given in μM", "value": "< 1.5", "unit": "µM"},
      {"measurement": "IC50", "setting": "MDA-MB-231 cells", "value": "< 0.5", "unit": "µM"}
    ]},
    {"molecule": "N#Cc1cn2ncnc(N)c2c1-c1ccc(NC(=O)Nc2ccnc(C(F)(F)F)c2)cc1", "note": "[Example 153, N-[4-(4-amino-6-cyanopyrrolo[2,1-f][1,2,4]triazin-5-yl)phenyl]-N′-[2-(trifluoromethyl)pyridin-4-yl]urea]", "values": [
      {"measurement": "IC50", "setting": "HCT116 cells; bounds given in μM", "value": "5 to 10", "unit": "µM"},
      {"measurement": "IC50", "setting": "MDA-MB-231 cells; bounds given in μM", "value": "5 to 10", "unit": "µM"}
    ]},
    {"molecule": "N#CCc1cn2ncnc(N)c2c1-c1ccc(NC(=O)Nc2cc(C(F)(F)F)ccn2)c(F)c1", "note": "[Example 255]", "values": [
      {"measurement": "IC50", "setting": "HCT116 cells; bounds given in μM", "value": "1.5 to 5", "unit": "µM"},
      {"measurement": "IC50", "setting": "MDA-MB-231 cells", "value": "> 0.5", "unit": "µM"},
      {"measurement": "IC50", "setting": "MDA-MB-231 cells; bounds given in μM", "value": "< 1.5", "unit": "µM"}
    ]},
    {"molecule": "Cn1nc(C(C)(C)C)cc1NC(=O)Nc1ccc(-c2c(C(=O)NCC(F)(F)F)cn3ncnc(N)c23)cc1", "note": "[Example 94, 4-amino-5-[4-({[(3-tert-butyl-1-methyl-1H-pyrazol-5-yl)amino]carbonyl}amino)phenyl]-N-(2,2,2-trifluoroethyl)pyrrolo[2,1-f][1,2,4]triazine-6-carboxamide]", "values": [
      {"measurement": "IC50", "setting": "HCT116 cells; bounds given in μM", "value": "5 to 10", "unit": "µM"},
      {"measurement": "IC50", "setting": "MDA-MB-231 cells; bounds given in μM", "value": "1.5 to 5", "unit": "µM"}
    ]},
    {"molecule": "CNC(=O)c1cn2ncnc(N)c2c1-c1ccc(NC(=O)Nc2ccc(F)c(C(F)(F)F)c2)cc1", "note": "[Example 74, 4-amino-5-{4-[({[4-fluoro-3-(trifluoromethyl)phenyl]amino}carbonyl)amino]phenyl}-N-methylpyrrolo[2,1-f][1,2,4]triazine-6-carboxamide]", "values": [
      {"measurement": "IC50", "setting": "HCT116 cells; bounds given in μM", "value": "1.5 to 5", "unit": "µM"},
      {"measurement": "IC50", "setting": "MDA-MB-231 cells; bounds given in μM", "value": "1.5 to 5", "unit": "µM"}
    ]},
    {"molecule": "CC(C)(C)c1ccnc(NC(=O)Nc2ccc(-c3c(C(=O)NC4CC4)cn4ncnc(N)c34)cc2)c1", "note": "[Example 76, 4-amino-5-[4-({[(4-tert-butylpyridin-2-yl)amino]carbonyl}amino)phenyl]-N-cyclopropylpyrrolo[2,1-f][1,2,4]triazine-6-carboxamide]", "values": [
      {"measurement": "IC50", "setting": "HCT116 cells", "value": "> 0.5", "unit": "µM"},
      {"measurement": "IC50", "setting": "HCT116 cells; bounds given in μM", "value": "< 1.5", "unit": "µM"},
      {"measurement": "IC50", "setting": "MDA-MB-231 cells; bounds given in μM", "value": "1.5 to 5", "unit": "µM"}
    ]}
  ]
}
